Literature values, collected in PubChem BioAssay AID1259409 (Chemical Carcinogenesis Research Information System (CCRIS), 2018).

Test system: rodent chemically induced tumor inhibition, incidence and multiplicity
Experiment: CCRIS tumor inhibitor studies
Details: Route [Inhibitor]: ORAL

Cc1c(C)c2c(c(C)c1O)CC[C@@](C)(CCC[C@H](C)CCC[C@H](C)CCCC(C)C)O2
outcome (Carcinogen: N-BIS(2-HYDROXYPROPYL)NITROSAMINE, 53609-64-6, Dose [Inhibitor]: 0, 1% IN DIET FOR 30 WK BEGINNING POST CARCINOGEN TREATMENT (STUDY DURATION: 32 WK), Species: RAT, Strain/Sex: F344/MALE, Target Tissue: Type of Lesion: LUNG: ADENOMA, Dose [Carcinogen]: 0.1% IN DRINKING WATER FOR 2 WK, Promoter: NONE USED): 100%, 100%, 0, not significant
tumour outcome (control, treated, inhibition, significance) (Carcinogen: N-BIS(2-HYDROXYPROPYL)NITROSAMINE, 53609-64-6, Dose [Inhibitor]: 0, 1% IN DIET FOR 30 WK BEGINNING POST CARCINOGEN TREATMENT (STUDY DURATION: 32 WK), Species: RAT, Strain/Sex: F344/MALE, Target Tissue: Type of Lesion: THYROID: ADENOMA, Dose [Carcinogen]: 0.1% IN DRINKING WATER FOR 2 WK, Promoter: NONE USED): 5%, 10%, -100%, not calculated
tumour outcome (control, treated, inhibition, significance) (Carcinogen: N-BIS(2-HYDROXYPROPYL)NITROSAMINE, 53609-64-6, Dose [Inhibitor]: 0, 1% IN DIET FOR 30 WK BEGINNING POST CARCINOGEN TREATMENT (STUDY DURATION: 32 WK), Species: RAT, Strain/Sex: F344/MALE, Target Tissue: Type of Lesion: THYROID: CARCINOMA, Dose [Carcinogen]: 0.1% IN DRINKING WATER FOR 2 WK, Promoter: NONE USED): 20%, 10%, 50%, not calculated
tumour outcome (control, treated, inhibition, significance) (Carcinogen: N-BIS(2-HYDROXYPROPYL)NITROSAMINE, 53609-64-6, Dose [Inhibitor]: 0, 1% IN DIET FOR 30 WK BEGINNING POST CARCINOGEN TREATMENT (STUDY DURATION: 32 WK, Species: RAT, Strain/Sex: F344/MALE, Target Tissue: Type of Lesion: LUNG: CARCINOMA, Dose [Carcinogen]: 0.1% IN DRINKING WATER FOR 2 WK, Promoter: NONE USED): 45%, 10%, 78%, p<0.05
tumour outcome (control, treated, inhibition, significance) (Carcinogen: N-METHYL-N'-NITRO-N-NITROSOGUANIDINE, 70-25-7, N-ETHYL-N-HYDROXYETHYLNITROSAMINE, 13147-25-6, N-METHYLBENZYLNITROSAM, Carcinogen: N-METHYL-N'-NITRO-N-NITROSOGUANIDINE, 70-25-7, N-ETHYL-N-HYDROXYETHYLNITROSAMINE, 13147-25-6, N-METHYLBENZYLNITROSAM, Dose [Inhibitor]: 0, 1% IN DIET FOR 36 WK (STUDY DURATION: 36 WK), Species: RAT, Strain/Sex: F344/MALE, Target Tissue: Type of Lesion: KIDNEY: RENAL CELL TUMOR, Dose [Carcinogen]: 100 MG/KG BW MNNG ONCE, 750 MG/KG BW EHEN ONCE, 0.5 MG/KG BW MBN TWICE, 40 MG/KG BW DMH 4 TIMES, 0.05% DBN IN DRINKING W, Promoter: NONE USED): 8/18 (44%), 5/18 (28%), 36%, not calculated
tumour outcome (control, treated, inhibition, significance) (Carcinogen: N-METHYL-N-NITROSOUREA, 684-93-5, Dose [Inhibitor]: 0, 3.349 UMOL/G IN DIET FOR DURATION OF STUDY (STUDY DURATION: 19 WK), Species: RAT, Strain/Sex: SPRAGUE-DAWLEY/FEMALE, Target Tissue: Type of Lesion: MAMMARY GLAND: TUMOR, Dose [Carcinogen]: 30 MG/KG IN ACIDIFIED SALINE ONCE, Promoter: NONE USED): 60%, 50%, 17%, not significant
tumour outcome (control, treated, inhibition, significance) (Carcinogen: N-METHYLBENZYLNITROSAMINE, 937-40-6, Dose [Inhibitor]: 30, 142 IU IN BASAL DIET BEGINNING 1 WK POST CARCINOGEN TREATMENT (STUDY DURATION: 26 WK), Species: MOUSE, Strain/Sex: C57BL/FEMALE, Target Tissue: Type of Lesion: ESOPHAGUS: TUMORS, Dose [Carcinogen]: 0.2 MG/KG BW IN CORN OIL 3/WK FOR 3 WK, Promoter: NONE USED): 6/15 (40%), 3/15 (20%), 50%, p<0.05
tumour outcome (control, treated, inhibition, significance) (Carcinogen: N-METHYLBENZYLNITROSAMINE, 937-40-6, Dose [Inhibitor]: 30, 142 IU IN BASAL DIET BEGINNING 1 WK POST CARCINOGEN TREATMENT TO MICE INFECTED WITH LP-BM5 MURINE RETROVIRUS (STUDY, Species: MOUSE, Strain/Sex: C57BL/FEMALE, Target Tissue: Type of Lesion: ESOPHAGUS: TUMORS, Dose [Carcinogen]: 0.2 MG/KG BW IN CORN OIL 3/WK FOR 3 WK, Promoter: NONE USED): 12/15 (80%), 11/16 (69%), 14%, not significant
tumour outcome (control, treated, inhibition, significance) (Carcinogen: N-NITROSOMETHYLBENZYLAMINE, 937-40-6, Dose [Inhibitor]: 20, 142 MG/KG DIET BEGINNING POST CARCINOGEN TREATMENT AND CONTINUING FOR DURATION OF STUDY (STUDY DURATION: 23 WK), Species: MOUSE, Strain/Sex: C57BL/FEMALE, Target Tissue: Type of Lesion: ESOPHAGUS: TUMOR, Dose [Carcinogen]: 0.2 MG/KG BW IN CORN OIL 3/WK FOR 3 WK, Promoter: ETHANOL, 64-17-5): 10/17 (59%), 6/16 (38%), 36%, p<0.05
tumour outcome (control, treated, inhibition, significance) (Carcinogen: NONE USED, Dose [Inhibitor]: 25.5, 550.9 MG/KG IN DIET FOR 40 WK (STUDY DURATION: 40 WK), Species: MOUSE, Strain/Sex: STRAIN-A/MALE, Target Tissue: Type of Lesion: LUNG: TUMOR, Promoter: NONE USED): 8/15 (53%), 4/15 (27%), 49%, not significant
tumour outcome (control, treated, inhibition, significance) (Carcinogen: URETHANE, 51-79-6, Dose [Inhibitor]: 25, 500 MG/KG IN DIET FOR THE DURATION OF STUDY (STUDY DURATION: 26 WK), Species: MOUSE, Strain/Sex: DDY/MALE, Target Tissue: Type of Lesion: LUNG: TUMOR, Dose [Carcinogen]: 750 MG/KG BW ONCE, Promoter: NONE USED): 100%, 80%, 20%, not calculated
